# From ChEMBL document CHEMBL1201862, “PubChem BioAssay data set” (2004)
# “And” between values parts separate entries of the source, which are not always exact repeats. Equal values may be shown once. The source made the active and inactive calls.
# Legend:
# [1] = molecular target: Sphingosine 1-phosphate receptor 2 (Homo sapiens, UniProt O95136); test: Late-stage fluorescence-based dose-response cell-based counterscreen assay to identify agonists of the Sphingosine 1-Phosphate Receptor 3 (S1P3): Sphingosine 1-Phosphate Receptor 2 (S1P2) agonist assay.; format: functional
# [2] = molecular target: T1, Sphingosine 1-phosphate receptor 4 (Homo sapiens, UniProt O95977); test: Late-stage fluorescence-based dose-response cell-based counterscreen assay to identify agonists of the Sphingosine 1-Phosphate Receptor 3 (S1P3): Sphingosine 1-Phosphate Receptor 4 (S1P4) agonist assay.; format: functional
# T1 sequence (O95977 whole entry): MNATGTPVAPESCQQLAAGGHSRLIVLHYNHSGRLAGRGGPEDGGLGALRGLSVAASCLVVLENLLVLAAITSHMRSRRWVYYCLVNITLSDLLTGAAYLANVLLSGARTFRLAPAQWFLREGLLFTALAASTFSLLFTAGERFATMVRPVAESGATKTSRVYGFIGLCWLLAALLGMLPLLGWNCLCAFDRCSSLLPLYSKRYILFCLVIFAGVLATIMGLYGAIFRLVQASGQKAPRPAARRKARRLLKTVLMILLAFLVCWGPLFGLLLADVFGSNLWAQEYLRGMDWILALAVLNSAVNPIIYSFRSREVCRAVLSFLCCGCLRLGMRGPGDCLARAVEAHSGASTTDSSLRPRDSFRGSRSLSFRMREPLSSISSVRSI
# [3] = molecular target: 26S proteasome non-ATPase regulatory subunit 14 (Homo sapiens, UniProt O00487); test: inhibition of proteasome subunit RPN11 – biochemical, fluorescence polarization, uHTS hits, confirmation (AID 602368); format: functional
# [4] = molecular target: 72 kDa type IV collagenase (Homo sapiens, UniProt P08253); test: Dose Response validation of uHTS RPN11 inhibitor hits using a MMP-2 Fluorescence assay.; format: functional
# Prothrombin = Prothrombin (Bos taurus, UniProt P00735); test: thrombin protease inhibitors – biochemical, fluorescence polarization, uHTS hits, dose response (AID 602369); format: functional
# [5] = activation of human KCNQ1/KCNE1 current – automated patch clamp, CHO cells, selectivity assay for KCNQ2 activator project, dose response (AID 493042); format: functional
# [6] = molecular target: Potassium voltage-gated channel subfamily KQT member 2 (Rattus norvegicus, UniProt O88943); test: Mode of action assay-Dose response assay for compounds that activate KCNQ2 potassium channels on automated patch clamp. [Related pubchem assays (depositor defined):AID2239, AID2258, AID2287, AID493113]; format: functional
# [7] = molecular target: Potassium voltage-gated channel subfamily KQT member 2/member 3 (Rattus norvegicus, UniProt O88943+O88944); test: Mode of action assay-Dose response assay for KCNQ2 activators in the KCNQ2/KCNQ3 co-expressing cells on automated patch clamp. [Related pubchem assays (depositor defined):AID2239, AID2258, AID2287]; format: functional
# [8] = molecular target: T2, Sentrin-specific protease 8 (Homo sapiens, UniProt Q96LD8); test: inhibition of human SENP8 cleavage activity – biochemical, luminescence, SAR follow-up (AID 504501); format: functional
# T2 sequence (Q96LD8 whole entry): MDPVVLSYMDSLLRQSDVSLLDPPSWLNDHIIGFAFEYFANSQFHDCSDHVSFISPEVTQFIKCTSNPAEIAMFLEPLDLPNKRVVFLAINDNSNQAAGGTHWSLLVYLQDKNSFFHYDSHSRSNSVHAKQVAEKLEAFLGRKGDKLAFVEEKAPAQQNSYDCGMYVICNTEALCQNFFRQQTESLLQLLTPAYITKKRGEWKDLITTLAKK
# Caspase-3 [9] = molecular target: T3, Caspase-3 (Homo sapiens, UniProt P42574); test: SAR Analysis of small molecule inhibitors of Sentrin-specific proteases (SENPs) using a Caspase-3 Selectivity assay. [Related pubchem assays (depositor defined):AID2540, AID2599, AID434973, AID489001]; format: functional
# T3 sequence (P42574 whole entry): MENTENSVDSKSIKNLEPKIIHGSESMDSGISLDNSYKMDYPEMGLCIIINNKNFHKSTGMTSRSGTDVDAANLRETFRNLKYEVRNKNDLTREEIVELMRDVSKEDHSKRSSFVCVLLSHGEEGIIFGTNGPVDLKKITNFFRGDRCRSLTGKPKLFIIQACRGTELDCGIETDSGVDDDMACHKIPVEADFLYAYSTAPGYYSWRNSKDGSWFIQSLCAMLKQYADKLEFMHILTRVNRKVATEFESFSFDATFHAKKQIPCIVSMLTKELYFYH
# [10] = molecular target: T4, Sentrin-specific protease 6 (Homo sapiens, UniProt Q9GZR1); test: SAR Analysis of small molecule inhibitors of Sentrin-specific protease 6 (SENP6) using a Luminescent assay. [Related pubchem assays (depositor defined):AID2582, AID2599]; format: functional
# T4 sequence (Q9GZR1 whole entry): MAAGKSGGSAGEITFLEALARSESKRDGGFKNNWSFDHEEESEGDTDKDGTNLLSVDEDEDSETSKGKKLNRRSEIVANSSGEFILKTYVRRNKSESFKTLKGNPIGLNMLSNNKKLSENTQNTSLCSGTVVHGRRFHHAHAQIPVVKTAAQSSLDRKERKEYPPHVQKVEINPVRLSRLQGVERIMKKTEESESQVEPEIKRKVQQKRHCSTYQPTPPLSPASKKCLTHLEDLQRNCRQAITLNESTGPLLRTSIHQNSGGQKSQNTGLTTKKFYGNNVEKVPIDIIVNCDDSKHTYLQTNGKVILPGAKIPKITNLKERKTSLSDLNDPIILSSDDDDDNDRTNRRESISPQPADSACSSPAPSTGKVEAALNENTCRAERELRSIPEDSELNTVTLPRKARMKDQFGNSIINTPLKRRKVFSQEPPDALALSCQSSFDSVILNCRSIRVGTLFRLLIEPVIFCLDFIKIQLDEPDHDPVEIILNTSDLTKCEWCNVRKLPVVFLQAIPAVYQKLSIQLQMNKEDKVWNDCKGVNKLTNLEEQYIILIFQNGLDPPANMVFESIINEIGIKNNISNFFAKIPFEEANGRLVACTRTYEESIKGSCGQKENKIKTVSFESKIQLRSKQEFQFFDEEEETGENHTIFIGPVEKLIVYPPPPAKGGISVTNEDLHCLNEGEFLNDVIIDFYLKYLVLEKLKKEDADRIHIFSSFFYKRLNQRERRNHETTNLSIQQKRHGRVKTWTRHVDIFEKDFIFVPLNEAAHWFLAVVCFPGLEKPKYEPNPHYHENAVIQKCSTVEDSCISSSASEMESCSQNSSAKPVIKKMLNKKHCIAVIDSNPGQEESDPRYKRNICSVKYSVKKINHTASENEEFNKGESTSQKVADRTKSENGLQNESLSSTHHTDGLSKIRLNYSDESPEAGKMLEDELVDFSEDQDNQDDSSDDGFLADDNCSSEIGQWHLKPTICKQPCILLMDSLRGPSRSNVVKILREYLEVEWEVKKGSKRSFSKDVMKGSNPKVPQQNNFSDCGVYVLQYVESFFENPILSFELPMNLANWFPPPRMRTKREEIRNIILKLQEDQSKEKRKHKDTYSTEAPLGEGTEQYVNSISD
# [11] = molecular target: T5, Sentrin-specific protease 7 (Homo sapiens, UniProt Q9BQF6); test: inhibition of human SENP7 cleavage activity – biochemical, luminescence, SAR follow-up (AID 504497); format: functional
# T5 sequence (Q9BQF6 whole entry): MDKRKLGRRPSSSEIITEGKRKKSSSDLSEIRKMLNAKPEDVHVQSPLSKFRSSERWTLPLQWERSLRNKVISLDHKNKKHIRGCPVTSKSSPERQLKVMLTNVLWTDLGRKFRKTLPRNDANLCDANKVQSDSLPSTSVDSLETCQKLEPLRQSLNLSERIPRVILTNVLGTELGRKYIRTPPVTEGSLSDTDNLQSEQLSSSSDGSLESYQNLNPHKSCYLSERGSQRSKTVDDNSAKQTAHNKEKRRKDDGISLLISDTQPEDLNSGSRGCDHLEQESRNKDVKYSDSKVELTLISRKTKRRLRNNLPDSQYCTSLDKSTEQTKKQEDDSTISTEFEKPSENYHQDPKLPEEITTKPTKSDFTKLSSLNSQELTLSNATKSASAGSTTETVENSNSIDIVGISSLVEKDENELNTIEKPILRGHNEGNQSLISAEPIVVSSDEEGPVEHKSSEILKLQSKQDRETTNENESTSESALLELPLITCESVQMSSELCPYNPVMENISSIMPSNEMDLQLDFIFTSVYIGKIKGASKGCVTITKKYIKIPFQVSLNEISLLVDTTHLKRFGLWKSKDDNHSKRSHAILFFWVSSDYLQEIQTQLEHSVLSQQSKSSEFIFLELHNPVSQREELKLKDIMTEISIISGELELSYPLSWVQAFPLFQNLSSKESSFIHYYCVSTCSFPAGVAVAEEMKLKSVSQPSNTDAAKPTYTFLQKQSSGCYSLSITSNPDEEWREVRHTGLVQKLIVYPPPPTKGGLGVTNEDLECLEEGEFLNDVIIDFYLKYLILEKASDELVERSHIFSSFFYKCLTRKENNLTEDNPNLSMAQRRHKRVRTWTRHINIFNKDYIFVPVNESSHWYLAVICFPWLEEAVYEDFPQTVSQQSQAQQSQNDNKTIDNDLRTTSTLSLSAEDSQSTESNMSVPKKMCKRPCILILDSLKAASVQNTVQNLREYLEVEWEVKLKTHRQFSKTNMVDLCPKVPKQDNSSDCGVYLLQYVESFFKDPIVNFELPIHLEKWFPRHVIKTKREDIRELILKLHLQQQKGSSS
# HEK293 = test: EBV LMP1 TES2 canonical NF-kB signalling blockers – cell-based, HEK293, luciferase, cherry-pick, dose response (AID 588343); format: functional; details: Homo sapiens
# [12] = molecular target: Latent membrane protein 1 (Human herpesvirus 4 (strain B95-8), UniProt P03230); test: LMP1 TES1 pathway selectivity over dsRED control – imaging, HEK293T, dual-color eGFP/dsRED, cherry-picks, selectivity assay for LMP1 NF-kB inhibitor project, dose response (AID 588398); format: functional, cell-based
# [13] = molecular target: T6, Oxysterols receptor LXR-beta (Homo sapiens, UniProt P55055); format: functional, cell-based;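 further: agonist activity at LXR measured by a cell-based luminescence readout across a dose range, run as a counterscreen for daf-12 agonists; HEK293 cells with Gal4-LXR fusion and GAL4-driven luciferase reporter; potency for activation of Gal4-LXR reporter so compounds are agonists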
# T6 sequence (P55055 whole entry): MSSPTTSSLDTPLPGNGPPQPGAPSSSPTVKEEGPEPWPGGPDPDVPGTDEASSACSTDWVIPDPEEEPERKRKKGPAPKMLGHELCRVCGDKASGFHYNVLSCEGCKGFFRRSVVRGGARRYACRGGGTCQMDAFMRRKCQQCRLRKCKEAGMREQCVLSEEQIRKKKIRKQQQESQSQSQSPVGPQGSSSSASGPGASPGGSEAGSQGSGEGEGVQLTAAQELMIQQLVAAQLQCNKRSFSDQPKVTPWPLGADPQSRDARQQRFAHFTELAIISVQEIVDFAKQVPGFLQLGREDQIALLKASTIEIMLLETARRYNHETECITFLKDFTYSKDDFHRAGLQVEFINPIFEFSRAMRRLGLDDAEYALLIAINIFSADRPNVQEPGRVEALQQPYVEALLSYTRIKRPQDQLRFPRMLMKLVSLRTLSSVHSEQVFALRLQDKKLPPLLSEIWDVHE
# Beta Lactamase [14] = molecular target: T7, Beta Lactamase (Pseudomonas aeruginosa, UniProt Q932Y6);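 further: confirmatory high-throughput screen measuring VIM-2 metallo-beta-lactamase inhibition by epi-absorbance in dose response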
# Beta-lactamase [15] = molecular target: Beta-lactamase (Pseudomonas aeruginosa, UniProt Q79MP6);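 further: biochemical dose-response test of metallo-beta-lactamase enzyme inhibition, read out by epi-absorbance; purified recombinant IMP-1 metallo-beta-lactamase with nitrocefin as substrate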
# Beta-lactamase [16] = molecular target: Beta-lactamase (Salmonella choleraesuis (strain SC-B67), UniProt Q5J463)
# CHO = CHO cell viability loss, potency – luminescence, cytotoxicity control for TLR9-MyD88 binding inhibitor project, dose response (AID 588339); format: functional, cell-based, hamster; details: Cricetulus griseus;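 further: CHO cells stably coexpressing TLR9 and MyD88 fusions from primary screen; compound exposure lasted 48 hours before viability readout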
# Beta Lactamase [17] = molecular target: T7, Beta Lactamase; test: BLA reporter interference, concentration series – BLA reporter cells, FRET fluorescence, artefact control for TLR9-MyD88 binding inhibitor project, dose response (AID 588341); format: cell-based;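 further: cell based assay in CHO-K1 cells stably expressing beta-lactamase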
# [18] = viability loss in Vero cells – cell-based, purified and synthesized samples, set 8, cytotoxicity control for M. tuberculosis inhibitor project (AID 602431); format: functional; details: Mycobacterium tuberculosis
# [19] = THP-1 cell cytotoxicity, cytotoxicity control, set 6 (AID 602433); format: functional; details: Mycobacterium tuberculosis
# Caspase-3 [20] = molecular target: T3, Caspase-3; test: inhibition of recombinant caspase-3 activity – biochemical, luminescence, set 2, selectivity assay for SENP protease inhibitor project, SAR follow-up (AID 588599); format: functional
# [21] = molecular target: T2, Sentrin-specific protease 8; test: inhibition of sentrin protease 8 – biochemical, luminescence, set 2, SAR follow-up (AID 588601); format: functional
# [22] = molecular target: T5, Sentrin-specific protease 7; test: inhibition of human SENP7 cleavage activity – biochemical, luminescence, set 2, SAR follow-up (AID 588600); format: functional
# [23] = molecular target: T4, Sentrin-specific protease 6; test: inhibition of human SENP6 catalytic domain – biochemical, luminescence, set 2, SAR follow-up (AID 588598); format: functional
# Sequence of Potassium voltage-gated channel subfamily KQT member 2 (O88943 whole entry): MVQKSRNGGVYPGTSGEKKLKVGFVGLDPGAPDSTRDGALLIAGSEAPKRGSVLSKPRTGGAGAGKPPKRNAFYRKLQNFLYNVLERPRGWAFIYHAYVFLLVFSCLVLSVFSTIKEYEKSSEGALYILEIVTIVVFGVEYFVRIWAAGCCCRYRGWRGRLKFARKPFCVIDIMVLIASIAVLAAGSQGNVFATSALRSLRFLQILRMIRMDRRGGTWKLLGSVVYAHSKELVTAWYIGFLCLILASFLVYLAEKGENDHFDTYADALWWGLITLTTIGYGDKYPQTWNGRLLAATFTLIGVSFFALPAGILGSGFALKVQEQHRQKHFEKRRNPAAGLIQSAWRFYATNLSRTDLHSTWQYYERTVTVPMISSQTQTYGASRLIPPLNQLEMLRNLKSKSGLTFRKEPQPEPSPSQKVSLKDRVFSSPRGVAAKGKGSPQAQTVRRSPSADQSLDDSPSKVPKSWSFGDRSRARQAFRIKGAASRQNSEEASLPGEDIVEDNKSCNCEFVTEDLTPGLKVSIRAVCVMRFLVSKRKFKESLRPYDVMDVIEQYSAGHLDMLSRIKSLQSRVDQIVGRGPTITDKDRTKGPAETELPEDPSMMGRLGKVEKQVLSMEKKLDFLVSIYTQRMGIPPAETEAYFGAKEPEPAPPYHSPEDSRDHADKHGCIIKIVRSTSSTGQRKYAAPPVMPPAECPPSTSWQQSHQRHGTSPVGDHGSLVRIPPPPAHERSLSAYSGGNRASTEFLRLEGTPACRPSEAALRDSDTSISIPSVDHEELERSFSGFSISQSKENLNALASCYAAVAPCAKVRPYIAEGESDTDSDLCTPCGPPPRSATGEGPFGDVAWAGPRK
# T7 sequence (Q932Y6 whole entry): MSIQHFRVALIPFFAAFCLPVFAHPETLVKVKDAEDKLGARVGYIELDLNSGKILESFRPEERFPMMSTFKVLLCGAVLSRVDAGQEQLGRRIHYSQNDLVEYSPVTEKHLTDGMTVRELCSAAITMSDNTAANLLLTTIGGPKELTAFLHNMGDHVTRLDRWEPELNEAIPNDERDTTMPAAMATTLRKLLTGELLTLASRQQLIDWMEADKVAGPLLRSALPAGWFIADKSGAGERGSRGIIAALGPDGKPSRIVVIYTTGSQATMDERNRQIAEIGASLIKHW
# Sequence of Sphingosine 1-phosphate receptor 2 (O95136 whole entry): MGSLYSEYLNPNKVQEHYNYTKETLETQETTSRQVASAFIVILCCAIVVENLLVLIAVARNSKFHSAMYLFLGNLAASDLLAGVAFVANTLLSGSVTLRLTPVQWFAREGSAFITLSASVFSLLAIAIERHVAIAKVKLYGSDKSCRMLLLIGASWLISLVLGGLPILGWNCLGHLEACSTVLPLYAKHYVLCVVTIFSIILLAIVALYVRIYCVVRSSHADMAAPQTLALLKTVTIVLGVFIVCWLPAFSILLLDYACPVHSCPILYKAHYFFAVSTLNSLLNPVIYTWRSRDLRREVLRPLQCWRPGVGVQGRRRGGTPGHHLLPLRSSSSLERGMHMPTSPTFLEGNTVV
# Sequence of Beta-lactamase (Salmonella choleraesuis (strain SC-B67), UniProt Q5J463) (Q5J463 whole entry, the tested form may be a part): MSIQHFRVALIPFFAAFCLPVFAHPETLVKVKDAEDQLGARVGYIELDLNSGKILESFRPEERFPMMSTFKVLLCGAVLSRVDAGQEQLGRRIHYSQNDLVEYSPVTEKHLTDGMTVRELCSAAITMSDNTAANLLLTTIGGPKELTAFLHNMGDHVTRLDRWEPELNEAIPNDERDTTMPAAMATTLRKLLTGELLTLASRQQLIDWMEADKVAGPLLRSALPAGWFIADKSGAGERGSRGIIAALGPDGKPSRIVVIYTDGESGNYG
# Sequence of Latent membrane protein 1 (P03230 whole entry, the tested form may be a part): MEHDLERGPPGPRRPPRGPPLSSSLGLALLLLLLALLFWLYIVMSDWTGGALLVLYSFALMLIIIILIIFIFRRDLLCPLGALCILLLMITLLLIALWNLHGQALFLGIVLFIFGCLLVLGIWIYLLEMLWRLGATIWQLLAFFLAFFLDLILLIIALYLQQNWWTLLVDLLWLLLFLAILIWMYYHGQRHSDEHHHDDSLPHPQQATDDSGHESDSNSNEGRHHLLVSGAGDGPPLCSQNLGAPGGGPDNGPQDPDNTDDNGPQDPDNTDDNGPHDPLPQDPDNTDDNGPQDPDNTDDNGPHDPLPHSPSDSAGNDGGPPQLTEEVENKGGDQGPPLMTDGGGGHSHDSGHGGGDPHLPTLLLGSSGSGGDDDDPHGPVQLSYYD
# Sequence of 72 kDa type IV collagenase (P08253 whole entry): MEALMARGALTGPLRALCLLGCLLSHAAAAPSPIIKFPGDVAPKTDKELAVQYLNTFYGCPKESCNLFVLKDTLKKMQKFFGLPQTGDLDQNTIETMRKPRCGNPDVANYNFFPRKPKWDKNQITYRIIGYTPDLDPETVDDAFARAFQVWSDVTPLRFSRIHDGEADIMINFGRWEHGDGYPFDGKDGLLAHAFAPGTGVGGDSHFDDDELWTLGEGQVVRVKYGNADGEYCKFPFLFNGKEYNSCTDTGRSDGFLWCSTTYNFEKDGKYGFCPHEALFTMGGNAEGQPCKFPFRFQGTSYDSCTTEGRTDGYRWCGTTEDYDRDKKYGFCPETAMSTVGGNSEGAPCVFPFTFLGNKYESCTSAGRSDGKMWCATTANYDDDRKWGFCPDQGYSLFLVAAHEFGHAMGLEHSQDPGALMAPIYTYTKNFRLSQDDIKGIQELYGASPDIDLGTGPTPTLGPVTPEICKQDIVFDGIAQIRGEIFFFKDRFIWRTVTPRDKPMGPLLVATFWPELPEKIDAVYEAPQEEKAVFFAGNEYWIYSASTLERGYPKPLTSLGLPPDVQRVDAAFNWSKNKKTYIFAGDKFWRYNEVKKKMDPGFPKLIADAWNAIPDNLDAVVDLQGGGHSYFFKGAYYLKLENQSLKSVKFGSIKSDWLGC
# Sequence of 26S proteasome non-ATPase regulatory subunit 14 (O00487 whole entry): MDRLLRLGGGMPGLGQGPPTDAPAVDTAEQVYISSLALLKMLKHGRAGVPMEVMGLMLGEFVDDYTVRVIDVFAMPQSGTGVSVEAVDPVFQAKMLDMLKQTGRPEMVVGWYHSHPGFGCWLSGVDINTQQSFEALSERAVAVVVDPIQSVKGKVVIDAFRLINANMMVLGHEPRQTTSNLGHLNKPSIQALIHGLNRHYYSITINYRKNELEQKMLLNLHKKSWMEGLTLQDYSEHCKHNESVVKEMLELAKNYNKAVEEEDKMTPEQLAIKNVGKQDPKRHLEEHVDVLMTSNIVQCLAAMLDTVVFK
# Sequence of Potassium voltage-gated channel subfamily KQT member 2/member 3 (O88943 whole entry): as the sequence (O88943 whole entry) above
# Sequence of Potassium voltage-gated channel subfamily KQT member 2/member 3 (O88944 whole entry): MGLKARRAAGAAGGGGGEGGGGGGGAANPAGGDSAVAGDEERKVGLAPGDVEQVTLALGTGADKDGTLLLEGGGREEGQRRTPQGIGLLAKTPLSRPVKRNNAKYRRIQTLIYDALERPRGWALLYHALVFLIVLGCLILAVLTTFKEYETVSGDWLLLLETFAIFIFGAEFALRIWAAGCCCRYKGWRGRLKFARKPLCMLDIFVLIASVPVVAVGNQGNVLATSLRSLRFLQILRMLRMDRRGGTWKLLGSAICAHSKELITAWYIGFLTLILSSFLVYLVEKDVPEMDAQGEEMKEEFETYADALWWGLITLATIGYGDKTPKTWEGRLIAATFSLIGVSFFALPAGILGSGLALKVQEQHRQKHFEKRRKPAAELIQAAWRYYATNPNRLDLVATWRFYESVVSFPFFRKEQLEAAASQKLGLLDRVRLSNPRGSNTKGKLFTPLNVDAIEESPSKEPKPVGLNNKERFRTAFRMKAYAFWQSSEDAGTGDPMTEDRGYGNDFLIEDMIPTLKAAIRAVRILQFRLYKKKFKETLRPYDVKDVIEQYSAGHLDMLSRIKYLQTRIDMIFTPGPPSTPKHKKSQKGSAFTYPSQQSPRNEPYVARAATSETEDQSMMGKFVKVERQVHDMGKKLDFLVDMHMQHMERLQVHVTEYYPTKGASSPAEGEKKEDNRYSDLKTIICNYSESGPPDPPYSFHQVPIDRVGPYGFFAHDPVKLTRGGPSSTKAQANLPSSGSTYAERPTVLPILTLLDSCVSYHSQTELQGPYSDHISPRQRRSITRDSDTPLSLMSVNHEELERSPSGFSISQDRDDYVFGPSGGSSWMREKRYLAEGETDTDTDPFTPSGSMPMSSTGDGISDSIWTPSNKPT
# Sequence of Beta-lactamase (Pseudomonas aeruginosa, UniProt Q79MP6) (Q79MP6 whole entry): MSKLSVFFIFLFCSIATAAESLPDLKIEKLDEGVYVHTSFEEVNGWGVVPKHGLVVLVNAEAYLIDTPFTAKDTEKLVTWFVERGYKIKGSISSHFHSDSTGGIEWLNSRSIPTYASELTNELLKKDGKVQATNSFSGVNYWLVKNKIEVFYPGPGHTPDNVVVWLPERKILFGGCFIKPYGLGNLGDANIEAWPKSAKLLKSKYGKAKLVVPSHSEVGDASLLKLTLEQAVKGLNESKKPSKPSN
structure (smiles),measurement,setting,value
O=C(c1cc(-c2ccccc2)on1)N(C1CCCCC1)C1CCCCC1,EC50,[1],> 50 µM (inactive)
same,EC50,[2],> 50 µM (inactive)
O=C(N/N=C/c1ccncc1)c1cccc(NC(=O)c2ccc(Cl)cc2)c1,IC50,[3],30.4 µM (active)
same,IC50,[4],> 100 µM (inactive)
same,IC50,Prothrombin,> 100 µM (inactive)
Cc1cc(C)c(NC(=O)C2CC3CCC2C3)c(C)c1 (stereo unspecified),EC50,[5],31.9 µM (active)
same,EC50,[6],410 nM (active) and 369 nM (active) and 230 nM (active)
same,EC50,[7],0.366 µM (active)
O=C(Nc1nc2ccc(Cl)cc2s1)c1ccsc1,IC50,[8],0.83 µM (active)
same,IC50,Caspase-3 [9],2.3 µM (active)
same,IC50,[10],0.83 µM (active)
same,IC50,[11],1.1 µM (active)
CCc1sc(C(=O)Nc2ncccc2O)cc1C,AC50,HEK293,3.71 µM (active)
same,AC50,[12],29.7 µM (active)
same,EC50,[13],> 67.5 µM (inactive)
O=C(O)c1ccccc1-c1ccc(/C=C/c2cc(C(F)(F)F)nc(O)n2)o1,IC50,Beta Lactamase [14],25 µM (inactive)
same,IC50,Beta-lactamase [15],30.2 µM (inactive)
same,IC50,Beta-lactamase [16],6.74 µM (active)
same,IC50,CHO,> 49.8 µM (inactive)
same,IC50,Beta Lactamase [17],7 µM (active)
O=C(CSc1nc2c(c(=O)[nH]1)CN(Cc1ccccc1)CC2)NC1CCCCC1,CC50,[18],> 100 µM (inconclusive)
same,CC50,[19],> 100 µM (inconclusive)
Cc1[nH]c2ccccc2c1/C=N/NC(=O)Cc1nnc(N)s1,IC50,Caspase-3 [20],> 99 µM (inactive)
same,IC50,[21],> 99 µM (inactive)
same,IC50,[22],> 99 µM (inactive)
same,IC50,[23],> 99 µM (inactive)
